Laboratory results: patent US9970945B2, “Compositions, methods, and assays using proteo-liposome-transfected oocytes for analyzing the structure, function, and activity of membrane proteins” (Georgia State University Research Foundation, Inc., priority 2013, dated 2018)
One block for each compound: values may come before it.

How the values were obtained:
PaSecA = molecular target: T1, PaSecA (Pseudomonas aeruginosa, UniProt Q9LCT3); test: SecA-liposomes ion-channel activity in Xenopus oocytes (two-electrode voltage clamp); format: cell-based, P. aeruginosa; conditions: injected PaSecA-liposomes in oocytes
T1 construct: made in house; host or cells: E. coli BL21.19

[1] = molecular target: T2, E. coli SecA translocation ATPase (Escherichia coli, UniProt P10408); test: In vitro translocation ATPase inhibition kinetics; format: biochemical; conditions: requires SecYEG and precursors
T2 construct: made in house; host or cells: E. coli BL21(λDE3)/pT7-SecA (SecA); E. coli membranes supply SecYEG

[2] = molecular target: Soluble SecA intrinsic ATPase (Escherichia coli, UniProt P10408); test: Soluble SecA intrinsic ATPase inhibition kinetics; format: biochemical; conditions: data not shown
Cx26 = molecular target: T3, Cx26 (Homo sapiens, UniProt P29033); test: Cx26-proteoliposome hemi-channel activity in Xenopus oocytes; format: cell-based
T3 construct: His6 (C); made in house; host or cells: insect Sf9 cells, Bac-to-Bac baculovirus system
Procedure: Voltage Clamp was performed to measure the opening of protein conducting channels. When the channel on the cell membrane was opened, ions pass through the membrane and generate the ionic current. Thus, the recording of ionic current could also mean the opening of the protein conducting channel. Currents through the plasma membranes of oocytes were measured after the oocytes were injected with tested materials. The cells were place in a recording chamber (BSC-HT, Medical System, Greenvale, N.Y.) on a supporting nylon mesh, so that the perfusion solution bathed both the top and the bottom surface of the oocytes. Two electrode voltage clamping was performed using an amplifier (Geneclamp 500, Axon instruments Inc., Foster City, Calif.) at room temperature (23-25° C.). Cells were impaled using electrodes filled with 3 M KCl. One of the electrode (1.0-2.0 MΩ) used for voltage recording was connected to the HS-2×1 L headstage (input resistance, […]), and the other electrode (0.3-0.6 MΩ) was used for current recording to the HS-2×10 MG headstage (maximum current, 130 μA). The electrode was connected through a silver wire that was chloridized freshly for each experiment. Oocytes were used for further experiments only if their leak currents measured as the difference before and after a leak subtraction were less than 10% of the peak currents. The leak subtraction was not applied for data acquisition and analysis. Current records were low-pass filtered (Bessel, 4-pole filter, 3 db at 5 kHz), digitized at 5 kHz (12 but resolution), and analyzed using pClamp6 (Axon Instruments). The highest and lowest records were eliminated, and then the data are presented as mean±S.E. (standard error; n, number of oocytes). The expression rates for each injection sample were also collected as a record to determine the channel activity efficiency.
The E. coli liposomes treated with detergent were mixed with purified Cx26 protein at 10:1 ratio. Then the mixture was dialyzed in dialysis solution (0.25 M Sucrose, 0.4 M KOAC, 20 mM triethanolamine hydrocholoride pH7.5, 1.5 mM Mg(OAC)2 and 1 mM EDTA) at 4° C. for 15-18 hours to reconstitute the Cx-26-proteoliposomes.
10 ng reconstituted Cx26-proteoliposomes was mixed with or without EGTA or CaCl2 and injected into oocytes. The injected oocytes were incubated at 23° C. for 30 mins with 1.8 mM CaCl2 to suppress the bubbling. Recording bath solution was 90K (90 mM KCl, 5 mM HEPES, 3 mM MgCl2) without Ca^2+. For Ca^2+ inhibition, the CaCl2 was added in the extracellular recording bath solution during the recording.

EcSecA = molecular target: T4, EcSecA (Escherichia coli, UniProt P10408); format: cell-based, E. coli; conditions: channel activity assay
T4 construct: made in house; host or cells: E. coli BL21(λDE3)/pT7-SecA
T4 sequence (P10408 whole entry): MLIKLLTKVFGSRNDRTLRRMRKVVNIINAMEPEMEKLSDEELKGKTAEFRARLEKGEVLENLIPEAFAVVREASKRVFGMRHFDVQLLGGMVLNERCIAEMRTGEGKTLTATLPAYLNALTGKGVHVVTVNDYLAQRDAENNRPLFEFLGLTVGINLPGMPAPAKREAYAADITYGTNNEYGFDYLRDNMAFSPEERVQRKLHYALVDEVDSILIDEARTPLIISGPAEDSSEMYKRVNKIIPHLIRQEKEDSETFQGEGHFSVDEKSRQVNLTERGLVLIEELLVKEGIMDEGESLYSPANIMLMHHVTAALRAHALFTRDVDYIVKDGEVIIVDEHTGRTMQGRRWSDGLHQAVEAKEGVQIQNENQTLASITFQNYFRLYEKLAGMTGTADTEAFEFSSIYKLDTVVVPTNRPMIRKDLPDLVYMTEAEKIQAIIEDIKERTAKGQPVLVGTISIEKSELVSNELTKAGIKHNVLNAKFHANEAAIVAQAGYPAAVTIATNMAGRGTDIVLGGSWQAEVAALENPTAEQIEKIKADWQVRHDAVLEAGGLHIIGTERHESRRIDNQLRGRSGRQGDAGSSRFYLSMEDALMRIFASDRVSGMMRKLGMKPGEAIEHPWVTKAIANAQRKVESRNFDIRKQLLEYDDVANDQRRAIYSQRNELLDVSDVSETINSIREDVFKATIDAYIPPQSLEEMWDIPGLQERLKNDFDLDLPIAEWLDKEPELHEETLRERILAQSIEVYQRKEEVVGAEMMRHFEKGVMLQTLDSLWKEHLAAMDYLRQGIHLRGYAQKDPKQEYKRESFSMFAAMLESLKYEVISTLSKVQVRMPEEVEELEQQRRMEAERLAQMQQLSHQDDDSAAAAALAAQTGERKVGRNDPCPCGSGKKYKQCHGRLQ

Chain of Soluble SecA intrinsic ATPase (P10408 whole entry): as above
T1 sequence (Q9LCT3 whole entry): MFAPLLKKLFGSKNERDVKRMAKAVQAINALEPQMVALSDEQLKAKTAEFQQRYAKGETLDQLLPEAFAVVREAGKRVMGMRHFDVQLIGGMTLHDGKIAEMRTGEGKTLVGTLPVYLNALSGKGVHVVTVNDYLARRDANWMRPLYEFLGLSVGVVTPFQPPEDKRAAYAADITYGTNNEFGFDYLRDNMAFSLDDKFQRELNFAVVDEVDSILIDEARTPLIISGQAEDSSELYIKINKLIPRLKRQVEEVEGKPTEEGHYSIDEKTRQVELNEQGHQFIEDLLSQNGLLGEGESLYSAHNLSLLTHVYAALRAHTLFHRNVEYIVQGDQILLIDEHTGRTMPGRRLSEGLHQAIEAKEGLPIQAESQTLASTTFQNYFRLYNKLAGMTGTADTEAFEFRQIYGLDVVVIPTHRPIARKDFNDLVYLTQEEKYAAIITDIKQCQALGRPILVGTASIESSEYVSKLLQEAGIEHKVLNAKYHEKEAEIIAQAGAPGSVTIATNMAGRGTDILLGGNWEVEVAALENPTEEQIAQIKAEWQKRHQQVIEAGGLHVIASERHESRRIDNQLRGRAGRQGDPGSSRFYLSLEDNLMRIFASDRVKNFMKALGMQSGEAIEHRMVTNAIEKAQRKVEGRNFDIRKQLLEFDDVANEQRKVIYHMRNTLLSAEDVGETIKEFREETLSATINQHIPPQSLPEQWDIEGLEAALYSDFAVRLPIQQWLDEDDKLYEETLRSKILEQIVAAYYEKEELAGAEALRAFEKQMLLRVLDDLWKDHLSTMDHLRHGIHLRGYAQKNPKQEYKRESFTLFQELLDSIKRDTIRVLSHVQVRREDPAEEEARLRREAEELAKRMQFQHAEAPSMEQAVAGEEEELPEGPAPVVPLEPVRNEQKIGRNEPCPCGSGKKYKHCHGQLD
T2 sequence (P10408 whole entry): as the sequence (P10408 whole entry) above
T2 sequence (P0AGA2 whole entry, further chain): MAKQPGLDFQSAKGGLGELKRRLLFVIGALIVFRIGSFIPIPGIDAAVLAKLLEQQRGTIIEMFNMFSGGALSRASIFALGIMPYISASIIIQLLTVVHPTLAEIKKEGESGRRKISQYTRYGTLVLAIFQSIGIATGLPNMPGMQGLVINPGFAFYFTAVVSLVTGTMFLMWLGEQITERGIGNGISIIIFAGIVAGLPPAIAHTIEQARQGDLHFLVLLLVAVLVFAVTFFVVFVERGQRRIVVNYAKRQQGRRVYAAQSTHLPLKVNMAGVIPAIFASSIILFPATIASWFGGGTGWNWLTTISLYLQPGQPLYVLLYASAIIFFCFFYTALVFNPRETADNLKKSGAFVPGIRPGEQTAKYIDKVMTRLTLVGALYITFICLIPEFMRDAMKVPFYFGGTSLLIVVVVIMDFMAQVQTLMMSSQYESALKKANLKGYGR
T2 sequence (P0AG96 whole entry, further chain): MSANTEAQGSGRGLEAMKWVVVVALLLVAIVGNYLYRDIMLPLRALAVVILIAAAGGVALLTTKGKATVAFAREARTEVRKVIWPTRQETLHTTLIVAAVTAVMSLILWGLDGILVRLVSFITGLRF
T2 sequence (P0AG99 whole entry, further chain): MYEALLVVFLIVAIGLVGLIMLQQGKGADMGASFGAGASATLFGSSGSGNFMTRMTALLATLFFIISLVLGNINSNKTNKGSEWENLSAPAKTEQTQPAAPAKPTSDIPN

SMILES: O=C(O)c1c(Cl)c(Cl)c(Cl)c(Cl)c1-c1c2cc(I)c(=O)c(I)c-2oc2c(I)c(O)c(I)cc12 [RB, Rose Bengal]
Inhibition kinetics with ATP, channel activity (PaSecA): non-competitive
Inhibition kinetics with ATP [1]: non-competitive
Inhibition kinetics with RB ([2]; high ATP): competitive
Inhibition kinetics with RB ([2]; low ATP): non-competitive

Cx26 channel current (Cx26; 10 mM EGTA in extracellular recording bath, from 2 μA): 7 μA
Cx26 hemi-channel activity (current) (Cx26; co-injection with 5 mM EGTA, Cx26-liposomes alone around 2 μA): 7 μA
SMILES: O=C(O)CN(CCOCCOCCN(CC(=O)O)CC(=O)O)CC(=O)O [EGTA]

SMILES: Oc1ccc2c(c1)Oc1cc(O)ccc1C2C1CCCCC1 [22d]
Potency against EcSecA relative to BsSecA (EcSecA): about 2 fold

Cx26 channel current (Cx26; 30 mM CaCl2 added to same extracellular bath after EGTA, 2 mins incubation): 1.3 μA
Effect on Cx26 channel activity (Cx26; CaCl2 co-injected with 5 mM EGTA): reduced the activity
Half-time of inhibition of Cx26 channel activity (Cx26; CaCl2 in extracellular bath solution): about 1 min
Effect on Cx26 channel activity (Cx26; co-injection with 2 mM CaCl2): slightly inhibited
SMILES: [Ca+2].[Cl-].[Cl-] [CaCl2]
